Reference: ChEMBL document CHEMBL5226282, “TLR2 Agonistic Small Molecules: Detailed Structure-Activity Relationship, Applications, and Future Prospects” (J Med Chem, 2021)

Experiments:
[1] = molecular target: T1, Toll-like receptor 2 (Homo sapiens, UniProt O60603); assay: Agonist activity at TLR2 (unknown origin)
[2] = molecular target: Toll-like receptor 2 (Mus musculus) (UniProt Q9QUN7); assay: Agonist activity at mouse TLR2 transfected in HEK293 cells relative to control; assay type: cell-based; parameters: concentration or dose not given beside the values
[3] = molecular target: T1, Toll-like receptor 2; assay: Agonist activity at human TLR2 transfected in HEK293 cells; assay type: cell-based

T1 sequence (O60603 whole entry): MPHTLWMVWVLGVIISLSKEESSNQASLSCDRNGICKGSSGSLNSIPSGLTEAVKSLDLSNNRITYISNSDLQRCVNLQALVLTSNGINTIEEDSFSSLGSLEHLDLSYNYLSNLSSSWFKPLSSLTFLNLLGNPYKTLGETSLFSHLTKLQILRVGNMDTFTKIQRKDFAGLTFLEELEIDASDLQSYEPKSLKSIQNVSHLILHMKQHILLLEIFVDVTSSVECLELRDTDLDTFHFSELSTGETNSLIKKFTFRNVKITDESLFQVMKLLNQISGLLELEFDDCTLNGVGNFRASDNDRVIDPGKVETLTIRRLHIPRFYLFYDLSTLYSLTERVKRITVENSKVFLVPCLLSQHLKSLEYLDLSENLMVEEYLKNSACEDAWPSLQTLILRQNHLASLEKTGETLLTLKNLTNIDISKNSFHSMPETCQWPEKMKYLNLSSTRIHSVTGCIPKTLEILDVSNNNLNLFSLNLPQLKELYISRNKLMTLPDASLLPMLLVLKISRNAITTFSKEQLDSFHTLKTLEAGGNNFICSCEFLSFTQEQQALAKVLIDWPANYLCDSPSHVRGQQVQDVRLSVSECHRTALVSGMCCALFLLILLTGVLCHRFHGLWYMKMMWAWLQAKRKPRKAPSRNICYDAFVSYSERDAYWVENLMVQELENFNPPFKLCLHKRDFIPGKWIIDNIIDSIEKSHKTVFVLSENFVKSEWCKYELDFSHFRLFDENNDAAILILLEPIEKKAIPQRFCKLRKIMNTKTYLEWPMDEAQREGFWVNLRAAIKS
Chain of Toll-like receptor 2 (Mus musculus) (Q9QUN7 whole entry): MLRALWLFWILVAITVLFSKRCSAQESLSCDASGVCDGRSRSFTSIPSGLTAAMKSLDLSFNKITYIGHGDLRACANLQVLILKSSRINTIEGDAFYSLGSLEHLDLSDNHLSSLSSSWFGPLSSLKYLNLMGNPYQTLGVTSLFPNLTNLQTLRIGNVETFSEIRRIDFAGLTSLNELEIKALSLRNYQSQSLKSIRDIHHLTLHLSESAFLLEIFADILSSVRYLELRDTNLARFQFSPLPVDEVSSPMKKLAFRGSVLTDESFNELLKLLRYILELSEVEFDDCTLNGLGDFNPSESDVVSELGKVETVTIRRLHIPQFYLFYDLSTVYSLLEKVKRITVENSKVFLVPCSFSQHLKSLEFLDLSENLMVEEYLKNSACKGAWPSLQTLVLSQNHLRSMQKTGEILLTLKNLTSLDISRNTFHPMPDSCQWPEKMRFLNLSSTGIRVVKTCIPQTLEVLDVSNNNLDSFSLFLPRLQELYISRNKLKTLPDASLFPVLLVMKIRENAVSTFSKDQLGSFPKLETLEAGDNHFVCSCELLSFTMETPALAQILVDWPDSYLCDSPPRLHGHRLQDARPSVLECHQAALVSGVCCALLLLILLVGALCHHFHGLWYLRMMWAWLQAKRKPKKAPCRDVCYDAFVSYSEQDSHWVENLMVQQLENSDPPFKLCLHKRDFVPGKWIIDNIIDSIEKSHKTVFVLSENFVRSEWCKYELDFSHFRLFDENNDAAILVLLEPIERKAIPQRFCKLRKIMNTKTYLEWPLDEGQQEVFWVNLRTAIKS

SMILES: CCCCCCCCCCCCCCCC(=O)OCC[C@H](CS[C@H](N)C(=O)N[C@@H](CO)C(=O)N[C@@H](CCCCN)C(=O)N[C@@H](CCCCN)C(=O)N[C@@H](CCCCN)C(=O)N[C@@H](CCCCN)C(=O)N[C@@H](CO)C(=O)N[C@@H](CC(C)C)C(=O)N[C@@H](CC(C)C)C(=O)N[C@@H](CCSC)C(=O)N[C@@H](Cc1c[nH]c2ccccc12)C(=O)N[C@H](C(=O)N[C@H](C(=O)N[C@@H](CCC(N)=O)C(=O)N[C@H](C(=O)O)C(C)C)[C@@H](C)O)[C@@H](C)CC)OC(=O)CCCCCCCCCCCCCCC
- EC50 [1]: 609 nM

SMILES: CCCCCCCCCCCCCCCC(=O)N[C@H](CSCC(COC(=O)CC)OC(=O)CC)C(=O)N[C@@H](CO)C(=O)N[C@@H](CCCCN)C(=O)N[C@@H](CCCCN)C(=O)N[C@@H](CCCCN)C(=O)N[C@@H](CCCCN)C(=O)O (stereo not given in full)
- Activity [2]: 26%

SMILES: CCCCCCCCCCCCCCCC(=O)N[C@H](CSCC(COC(=O)CCCCCCC)OC(=O)CCCCCCC)C(=O)N[C@@H](CO)C(=O)N[C@@H](CCCCN)C(=O)N[C@@H](CCCCN)C(=O)N[C@@H](CCCCN)C(=O)N[C@@H](CCCCN)C(=O)O (stereo not given in full)
- Activity [2]: 0%

SMILES: CCCCCCCCCCCCCCCC(=O)OCC[C@H](CS[C@H](NC(C)=O)C(=O)N[C@@H](CO)C(=O)N[C@@H](CCCCN)C(=O)N[C@@H](CCCCN)C(=O)N[C@@H](CCCCN)C(=O)N[C@@H](CCCCN)C(=O)N[C@@H](CO)C(=O)N[C@@H](CC(C)C)C(=O)N[C@@H](CC(C)C)C(=O)N[C@@H](CCSC)C(=O)N[C@@H](Cc1c[nH]c2ccccc12)C(=O)N[C@H](C(=O)N[C@H](C(=O)N[C@@H](CCC(N)=O)C(=O)N[C@H](C(=O)O)C(C)C)[C@@H](C)O)[C@@H](C)CC)OC(=O)CCCCCCCCCCCCCCC
- EC50 [1]: 1160 nM

SMILES: CCCCCCCCCCCCCCCC(=O)OC[C@H](CS[C@H](NC(C)=O)C(=O)N[C@@H](CO)C(=O)N[C@@H](CCCCN)C(=O)N[C@@H](CCCCN)C(=O)N[C@@H](CCCCN)C(=O)N[C@@H](CCCCN)C(=O)N[C@@H](CO)C(=O)N[C@@H](CC(C)C)C(=O)N[C@@H](CC(C)C)C(=O)N[C@@H](CCSC)C(=O)N[C@@H](Cc1c[nH]c2ccccc12)C(=O)N[C@H](C(=O)N[C@H](C(=O)N[C@@H](CCC(N)=O)C(=O)N[C@H](C(=O)O)C(C)C)[C@@H](C)O)[C@@H](C)CC)OC(=O)CCCCCCCCCCCCCCC
- EC50 [1]: 281 nM

SMILES: CCCCCCCC(=O)OCC(CSC[C@@H](NC(=O)CCCCC)C(=O)N[C@@H](CO)C(=O)N[C@@H](CCCCN)C(=O)N[C@@H](CCCCN)C(=O)N[C@@H](CCCCN)C(=O)N[C@@H](CCCCN)C(=O)O)OC(=O)CCCCCCC (stereo not given in full)
- Activity [2]: 11%

SMILES: CCCCCCCCCC(=O)N[C@H](CSCC(COC(=O)CC)OC(=O)CC)C(=O)N[C@@H](CO)C(=O)N[C@@H](CCCCN)C(=O)N[C@@H](CCCCN)C(=O)N[C@@H](CCCCN)C(=O)N[C@@H](CCCCN)C(=O)O (stereo not given in full)
- Activity [2]: 26%

SMILES: CCCCCCCCCCCCCCCC(=O)OCCCC[C@H](CS[C@H](N)C(=O)N[C@@H](CO)C(=O)N[C@@H](CCCCN)C(=O)N[C@@H](CCCCN)C(=O)N[C@@H](CCCCN)C(=O)N[C@@H](CCCCN)C(=O)N[C@@H](CO)C(=O)N[C@@H](CC(C)C)C(=O)N[C@@H](CC(C)C)C(=O)N[C@@H](CCSC)C(=O)N[C@@H](Cc1c[nH]c2ccccc12)C(=O)N[C@H](C(=O)N[C@H](C(=O)N[C@@H](CCC(N)=O)C(=O)N[C@H](C(=O)O)C(C)C)[C@@H](C)O)[C@@H](C)CC)OC(=O)CCCCCCCCCCCCCCC
- EC50 [1]: 304 nM

SMILES: CCCCCCCCCCCCCCCC(=O)OCC(CSC[C@@H](NC(=O)CCCCCCCCC)C(=O)N[C@@H](CO)C(=O)N[C@@H](CCCCN)C(=O)N[C@@H](CCCCN)C(=O)N[C@@H](CCCCN)C(=O)N[C@@H](CCCCN)C(=O)O)OC(=O)CCCCCCCCCCCCCCC (stereo not given in full)
- Activity ([2]; filed as agonist): > 100%

SMILES: CCCCCCCCCCCCCC(=O)N[C@H](CSCC(COC(=O)CCCCCCC)OC(=O)CCCCCCC)C(=O)N[C@@H](CO)C(=O)N[C@@H](CCCCN)C(=O)N[C@@H](CCCCN)C(=O)N[C@@H](CCCCN)C(=O)N[C@@H](CCCCN)C(=O)O (stereo not given in full)
- Activity ([2]; filed as agonist): 51%

SMILES: CCCCCC(=O)N[C@H](CSCC(COC(=O)CCCCC)OC(=O)CCCCC)C(=O)N[C@@H](CO)C(=O)N[C@@H](CCCCN)C(=O)N[C@@H](CCCCN)C(=O)N[C@@H](CCCCN)C(=O)N[C@@H](CCCCN)C(=O)O (stereo not given in full)
- Activity [2]: 0%

SMILES: CCCCCCCC(=O)OCC(CSC[C@@H](NC(=O)Cc1ccccc1)C(=O)N[C@@H](CO)C(=O)N[C@@H](CCCCN)C(=O)N[C@@H](CCCCN)C(=O)N[C@@H](CCCCN)C(=O)N[C@@H](CCCCN)C(=O)O)OC(=O)CCCCCCC (stereo not given in full)
- Activity [2]: 11%

SMILES: CCCCCCCCCCCCCCCC(=O)OC[C@H](CS[C@H](N)C(=O)N[C@@H](CO)C(=O)N[C@@H](CCCCN)C(=O)N[C@@H](CCCCN)C(=O)N[C@@H](CCCCN)C(=O)N[C@@H](CCCCN)C(=O)N[C@@H](CO)C(=O)N[C@@H](CC(C)C)C(=O)N[C@@H](CC(C)C)C(=O)N[C@@H](CCSC)C(=O)N[C@@H](Cc1c[nH]c2ccccc12)C(=O)N[C@H](C(=O)N[C@H](C(=O)N[C@@H](CCC(N)=O)C(=O)N[C@H](C(=O)O)C(C)C)[C@@H](C)O)[C@@H](C)CC)OC(=O)CCCCCCCCCCCCCCC
- EC50 [1]: 468 nM

SMILES: CCCCCCCCCC(=O)N[C@H](CSCC(COC(=O)CCCCCCC)OC(=O)CCCCCCC)C(=O)N[C@@H](CO)C(=O)N[C@@H](CCCCN)C(=O)N[C@@H](CCCCN)C(=O)N[C@@H](CCCCN)C(=O)N[C@@H](CCCCN)C(=O)O (stereo not given in full)
- Activity [2]: 11%

SMILES: CCCCCC(=O)N[C@H](CSCC(COC(=O)CC)OC(=O)CC)C(=O)N[C@@H](CO)C(=O)N[C@@H](CCCCN)C(=O)N[C@@H](CCCCN)C(=O)N[C@@H](CCCCN)C(=O)N[C@@H](CCCCN)C(=O)O (stereo not given in full)
- Activity [2]: 11%

SMILES: CCCCCCCCCCCCCCCC(=O)N[C@H](CSCC(COC(=O)CCCCCCCCCCCCCCC)OC(=O)CCCCCCCCCCCCCCC)C(=O)N[C@@H](CO)C(=O)N[C@@H](CCCCN)C(=O)N[C@@H](CCCCN)C(=O)N[C@@H](CCCCN)C(=O)N[C@@H](CCCCN)C(=O)O (stereo not given in full)
- Activity ([2]; filed as agonist): 51%

SMILES: CCCCCCCCCCCCCCCC(=O)N[C@H](CSCC(COC(=O)CCCCC)OC(=O)CCCCC)C(=O)N[C@@H](CO)C(=O)N[C@@H](CCCCN)C(=O)N[C@@H](CCCCN)C(=O)N[C@@H](CCCCN)C(=O)N[C@@H](CCCCN)C(=O)O (stereo not given in full)
- Activity [2]: 0%

SMILES: CCCCCC(=O)OCC(CSC[C@@H](NC(=O)Cc1ccccc1)C(=O)N[C@@H](CO)C(=O)N[C@@H](CCCCN)C(=O)N[C@@H](CCCCN)C(=O)N[C@@H](CCCCN)C(=O)N[C@@H](CCCCN)C(=O)O)OC(=O)CCCCC (stereo not given in full)
- Activity [2]: 0%

SMILES: CCCCCCCCCCCCCCCC(=O)OCC(CSC[C@@H](NC(=O)CCCCC)C(=O)N[C@@H](CO)C(=O)N[C@@H](CCCCN)C(=O)N[C@@H](CCCCN)C(=O)N[C@@H](CCCCN)C(=O)N[C@@H](CCCCN)C(=O)O)OC(=O)CCCCCCCCCCCCCCC (stereo not given in full)
- Activity ([2]; filed as agonist): > 100%

SMILES: CCCCCCCCCCCCCC(=O)N[C@H](CSCC(COC(=O)CC)OC(=O)CC)C(=O)N[C@@H](CO)C(=O)N[C@@H](CCCCN)C(=O)N[C@@H](CCCCN)C(=O)N[C@@H](CCCCN)C(=O)N[C@@H](CCCCN)C(=O)O (stereo not given in full)
- Activity ([2]; filed as agonist): 51%

SMILES: CCCCCCCCCCCC(=O)OC[C@H](CSC[C@@H](N)C(=O)NCCOCCOCCOCCP(=O)(O)O)OC(=O)CCCCCCCCCCC
- EC50 [3]: 270 nM

SMILES: CCCCCCCCCCCCCCCC(=O)OCC(CSC[C@@H](NC(=O)Cc1ccccc1)C(=O)N[C@@H](CO)C(=O)N[C@@H](CCCCN)C(=O)N[C@@H](CCCCN)C(=O)N[C@@H](CCCCN)C(=O)N[C@@H](CCCCN)C(=O)O)OC(=O)CCCCCCCCCCCCCCC (stereo not given in full)
- Activity ([2]; filed as agonist): > 100%

SMILES: CCCCCCCCCCCC(=O)OC[C@H](CSC[C@@H](N)C(=O)N[C@H](C)COCCCP(=O)(O)O)OC(=O)CCCCCCCCCCC
- EC50 [3]: 19.2 nM

SMILES: CCC(=O)OCC(CSC[C@@H](NC(=O)Cc1ccccc1)C(=O)N[C@@H](CO)C(=O)N[C@@H](CCCCN)C(=O)N[C@@H](CCCCN)C(=O)N[C@@H](CCCCN)C(=O)N[C@@H](CCCCN)C(=O)O)OC(=O)CC (stereo not given in full)
- Activity [2]: 0%

SMILES: CCCCCCCCCCCC(=O)OC[C@H](CSC[C@@H](N)C(=O)NCCOCCC(F)(F)P(=O)(O)O)OC(=O)CCCCCCCCCCC
- EC50 [3]: 14 nM

SMILES: CCCCCCCCCCCC(=O)OC[C@H](CSC[C@@H](N)C(=O)NCCc1ccc(OCCCP(=O)(O)O)cc1)OC(=O)CCCCCCCCCCC
- EC50 [3]: 410 nM

SMILES: CCCCCCCCCCCCCCCC(=O)OCC(CSC[C@@H](NC(=O)CCCCCCCCCCCCC)C(=O)N[C@@H](CO)C(=O)N[C@@H](CCCCN)C(=O)N[C@@H](CCCCN)C(=O)N[C@@H](CCCCN)C(=O)N[C@@H](CCCCN)C(=O)O)OC(=O)CCCCCCCCCCCCCCC (stereo not given in full)
- Activity ([2]; filed as agonist): > 100%

SMILES: CCCCCCCCCCCC(=O)OC[C@H](CSC[C@@H](N)C(=O)NCCCC(C)(C)CO)OC(=O)CCCCCCCCCCC
- EC50 [3]: 30700 nM

SMILES: CCCCCCCCCCCC(=O)OC[C@H](CSC[C@@H](N)C(=O)NCCCOCCOCCOCCCN)OC(=O)CCCCCCCCCCC
- EC50 [3]: 498 nM

SMILES: CCCCCCCCCC(=O)N[C@H](CSCC(COC(=O)CCCCC)OC(=O)CCCCC)C(=O)N[C@@H](CO)C(=O)N[C@@H](CCCCN)C(=O)N[C@@H](CCCCN)C(=O)N[C@@H](CCCCN)C(=O)N[C@@H](CCCCN)C(=O)O (stereo not given in full)
- Activity [2]: < 10%

SMILES: CCCCCCCCCCCCCC(=O)N[C@H](CSCC(COC(=O)CCCCC)OC(=O)CCCCC)C(=O)N[C@@H](CO)C(=O)N[C@@H](CCCCN)C(=O)N[C@@H](CCCCN)C(=O)N[C@@H](CCCCN)C(=O)N[C@@H](CCCCN)C(=O)O (stereo not given in full)
- Activity [2]: 0%

SMILES: CCCCCCCCCCCC(=O)OC[C@H](CSC[C@@H](N)C(=O)NC(C)(C)CO)OC(=O)CCCCCCCCCCC
- EC50 [3]: 15500 nM

SMILES: CCCCCCCCCCCC(=O)OC[C@H](CSC[C@@H](N)C(=O)NCCOCCOCCC(F)(F)P(=O)(O)O)OC(=O)CCCCCCCCCCC
- EC50 [3]: 31 nM

SMILES: CCCCCCCCCCCC(=O)OC[C@H](CSC[C@@H](N)C(=O)NC(C)CCN(CC)CC)OC(=O)CCCCCCCCCCC (stereo not given in full)
- EC50 [3]: 257 nM

SMILES: CCCCCCCCCCCC(=O)OC[C@H](CSC[C@@H](N)C(=O)NC(C)CCC(C)C)OC(=O)CCCCCCCCCCC (stereo not given in full)
- EC50 [3]: 190 nM
